Data on two molecules can be found in patent EP0178388A1, “Quinolinecarboxylic acid derivatives” (KYORIN PHARMACEUTICAL CO., LTD., priority 1984, dated 1986).

Molecules are shown by their SMILES. Values after ≈ are worked out from the molar mass of the structure shown. Where a name gives a salt, the structure may show the parent alone.

In one test the test system is B. distasonis 8503. The test is described as follows: In vitro antibacterial activity, MIC (standard strain). As to conditions: Parabacteroides distasonis, B. distasonis 8503, 10^6 cells/ml. The class given is cell-based.
Test [1] deals with Eubacterium lentum GAI 5242. Described as above. It counts as cell-based. The conditions noted are these: Eggerthella lenta, GAI5242, Eubacterium lentum GAI 5242, 10^6 cells/ml.
The test system of the next test is P. aeruginosa IID 1210. Put plainly: MIC against the infecting strain (Table 2). It counts as cell-based. The conditions noted are these: Pseudomonas aeruginosa, IID1210; P. aeruginosa IID 1210 (Table 2, part 3).
The test system of the next test is S. aureus Smith. The test is described as follows: In vivo antibacterial activity against systemic infection in mice.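 Also: ED50 in mg/kg.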 The conditions noted are these: Staphylococcus aureus; S. aureus Smith, mice (ICR-S), intraperitoneal infection, oral at 1 hour after infection, challenge dose 3.5 x 10^5 cfu/mouse; read-out: ED50. Set-up: species or system mice (ICR-S).

With `CC1CN(c2c(F)cc3c(=O)c(C(=O)O)cn(C4CC4)c3c2F)CCN1` (stereo not drawn) [Example 2, l-Cyclopropyl-6,8-difluoro-l,4-dihydro-7-(3-methyl-l-piperazinyl)-4-oxoquinoline-3-carboxylic acid], it took 1.56 µg/mL (≈ 4.29 µM) to inhibit growth against B. distasonis 8503 (MIC).
Regarding `CC1CN(c2c(F)cc3c(=O)c(C(=O)O)cn(C4CC4)c3c2Cl)CCN1` (stereo not drawn) [Example 5, 8-Chloro-l-cyclopropyl-6-fluoro-1,4-dihydro-7-(3-methyl-1-piperazinyl)-4-oxoquinoline-3-carboxylic acid hydrochloride], the minimum inhibitory concentration (MIC) (in general, the smallest concentration in the dilution series that meets the test's criterion for growth inhibition) in test [1] amounted to 0.39 µg/mL; in the test with P. aeruginosa IID 1210, 0.78 µg/mL. Moreover, the ED50 (in general, the dose that gives a 50% effect, or the effect in half of the subjects) in the test with S. aureus Smith stood at 0.89 mg/kg.
